# Data published in patent publication US20200214296A1, “MICROBICIDAL COMPOSITION” (DDP Specialty Electronic Materials US, Inc., priority 2017, published 2020).
# Experiments:
# [1] = test system: Pseudomonas aeruginosa & E. coli mix; experiment: Synergy in the planktonic phase, biocide challenge with resazurin regrowth readout; format: cell-based, Pseudomonas aeruginosa (DSM: 50071) and E. coli (DSM: 1576); details: P. aeruginosa/E. coli, after 48 hours, phosphate buffer pH 7.3, used alone
# Experimental: Pseudomonas aeruginosa (DSM: 50071) and E. coli (DSM: 1576) cultures were separately prepared from glycerol stocks; first they were streak plated and validated with a microscope. Single colonies were picked and shake flasks were inoculated and left overnight at 37° C. (TSB medium) to produce the initial inoculum. The challenge block (a 96 wells plate) was prepared using phosphate buffer at pH 7.3, (0.0027M potassium chloride, 0.137 M sodium chloride). The Biocide challenging was done at 30° C. Inoculation took place at the start of the experiments and after 48 hours a re-inoculation was done. Challenging was monitored up to 7 days in total. In Table 1, the concentrations used for the synergy experiments are listed. Each experiment was done in triplicate. […] The recovery plates were subsequently read (checked for microbial growth) at 24 and 48 hours after addition of the culture. Plate reading took place twice for each time point, to look at potential changes. Reading took place utilizing separate 96 wells plates pre filled with fresh media. […] This was done in triplicate for each point (the triplicate is already present in the biocide block viz. each point is truly determined in triplicate). […] Ranking was done per average value of three data points determined per experiment. (Recorded in log regrowth). […]
# [2] = test system: Pseudomonas aeruginosa biofilm; experiment: Biofilm dissipation synergy on MBEC plate pegs; format: cell-based; details: P. aeruginosa biofilm, 24 hour contact time, 5 day regrowth; pass = total eradication of the biofilm
# Experimental: One measure of synergism is the industrially accepted method described by Kull, […]. and Mayer, R. L., in Applied Microbiology 9:538-541 (1961), using the ratio determined by the formula: Qa/QA+Qb/QB=Synergy Index (“SI”) […] A Pseudomonas aeruginosa culture was prepared from glycerol stocks. First, the culture was streak plated. Single colonies were selected and shake flasks were inoculated and left overnight at 37° C. (TSB medium). The culture was diluted in phosphate buffer pH 7.3 1:1000000 prior to set up the biofilm plate Biofilm was developed overnight on P&G MBEC plates. The 96 well plates were covered with the lid holding the pegs partially submerged in the growth media. Biofilm was developed on the pegs leading to a total cell amount of 7*10^10 cells per peg. The top plates (with the pegs) were then subsequently washed and then placed into a 96 well challenge plate with the biocidal components in the given amounts. […] The contact time of the biofilms with the microbicidal mix was 24 hours. After the challenging, the biofilms were gently washed, sonicated from the pegs into recovery media (TSB 30 g/l, with resazurin, 0.01%), from these wells directly after sonication 10× dilution series were made on separate plates. These were left to recover for 3 to 5 days at 30° C. […] It could then be back-calculated how many cells remained after challenging of the biofilm with biocides. […]
# Thermus thermophilus = experiment: Synergy in the planktonic phase, biocide challenge with resazurin regrowth readout; format: cell-based, Thermus thermophilus (DSM: 579)
# Experimental: The inoculum prepared added between to 1*10^8 to 1*10^9 total cells/ml (in each well). At several timepoints 20 microliter aliquots of each treatment (well) were added to 96 well plates with TSB+Resazurin. These 96 well plates were filled with 'recovery' media (TSB 30 grams/liter). One of such plates was prepared for each column of the assay block. 180 μl recovery media was added to each well of a 96 well plate, except for column 1 of the recovery plate. This column was filled with 180 μl of one column of the assay block. The last three columns on the recovery plate were not pipetted. These columns represented the no template control for verifying proper plate set up and data reliability. […] The recovery plates were subsequently read (checked for microbial growth) at 24 and 48 hours after addition of the culture. Plate reading took place twice for each time point, to look at potential changes. Reading took place utilizing separate 96 wells plates pre filled with fresh media. […] This was done in triplicate for each point (the triplicate is already present in the biocide block viz. each point is truly determined in triplicate). […] Ranking was done per average value of three data points determined per experiment. (Recorded in log regrowth). […]
smiles,measurement,setting,value
"O=CC=O [Glyoxal, glyoxal]",Glyoxal standalone 48 h pass,[1],≥2000 ppm
same,Glyoxal (standalone pass),[2],1280 ppm
same,Glyoxal standalone 48 h pass,"Thermus thermophilus; T. thermophilus, planktonic, after 48 hours, 60° C., standard ocean matrix salinity 2%, used alone",40 ppm
same,Sensitivity of Thermus thermophilus vs. Pseudomonas aeruginosa and E. coli,"Thermus thermophilus; comparison in words, footnote of Table 2",more sensitive
